Results taken from ChEMBL document CHEMBL5244216, “Pyrrole: An insight into recent pharmacological advances with structure activity relationship” (Eur J Med Chem, 2018).
In brackets after ≈: the same amount, converted by molar mass.

Key:
Bacillus subtilis [1] = test: Antibacterial activity against Bacillus subtilis MTCC 121 assessed as zone of inhibition at 800 ug/mL by disk diffusion method; format: functional; settings: read-out: IZ
Staphylococcus aureus = test: Antibacterial activity against Staphylococcus aureus 22 assessed as zone of inhibition at 800 ug/mL by disk diffusion method; format: functional; settings: read-out: IZ
Klebsiella pneumoniae [2] = test: Antibacterial activity against Klebsiella pneumoniae assessed as zone of inhibition at 800 ug/mL by disk diffusion method; format: functional; settings: read-out: IZ
[3] = test system: Mycobacterium tuberculosis; test: Antitubercular activity against Mycobacterium tuberculosis 103471 assessed as reduction in bacterial growth; format: functional
[4] = test system: Mycobacterium tuberculosis; test: Antitubercular activity against Mycobacterium tuberculosis H37Rv assessed as reduction in microbial growth by broth dilution method; format: functional
[5] = Toxicity in Nilaparvata lugens assessed as mortality at 0.8 mg/L relative to control; settings: at 0.8 µg/mL
[6] = Cytotoxicity activity against human PC-3 cells assessed as reduction in cell viability measured after 48 hrs by MTT assay; format: toxicity, cell-based
[7] = Cytotoxicity activity against human Eca-109 cells assessed as reduction in cell viability measured after 48 hrs by MTT assay; format: toxicity, cell-based
[8] = Cytotoxicity activity against human SMMC-7721 cells assessed as reduction in cell viability measured after 48 hrs by MTT assay; format: toxicity, cell-based
Rattus norvegicus [9] = test: Anti-inflammatory activity against carrageenan-induced acute paw edema in Wistar albino rat at 100 mg/kg assessed as inhibition of paw edema volume incubated for 3 hrs by Plethysmometric analysis relative to control; format: functional; parameters: scale not given: the % may be the effect or the level left
Rattus norvegicus [10] = test: Anti-inflammatory activity against carrageenan-induced acute paw edema in Wistar albino rat at 10 mg/kg assessed as inhibition of paw edema volume incubated for 3 hrs by Plethysmometric analysis relative to control; format: functional; parameters: scale not given: the % may be the effect or the level left
[11] = Inhibition of maize HD1-A; parameters: species or system Zea mays
[12] = Inhibition of maize HD2; parameters: species or system Zea mays
[13] = Inhibition of maize HD1-B; parameters: species or system Zea mays
[14] = test system: Mycobacterium tuberculosis; test: Antitubercular activity against Mycobacterium tuberculosis H37Rv assessed as reduction in bacterial growth by microplate alamar blue assay; format: functional
[15] = test system: Human immunodeficiency virus 1; test: Antiviral activity against HIV-1; format: functional, organism-based
Bacillus subtilis [16] = test: Antibacterial activity against Bacillus subtilis assessed as reduction in bacterial growth by broth microdilution method; format: functional, organism-based
[17] = test system: Staphylococcus auricularis; test: Antibacterial activity against Staphylococcus auricularis assessed as reduction in bacterial growth by broth microdilution method; format: functional, organism-based
Pseudomonas aeruginosa = test: Antibacterial activity against Pseudomonas aeruginosa assessed as reduction in bacterial growth by broth microdilution method; format: functional, organism-based
Escherichia coli [18] = test: Antibacterial activity against Escherichia coli assessed as reduction in bacterial growth by broth microdilution method; format: functional, organism-based
Klebsiella pneumoniae [19] = test: Antibacterial activity against Klebsiella pneumoniae assessed as reduction in bacterial growth by broth microdilution method; format: functional, organism-based
MDA-MB-231 = test: Antiproliferative activity against human MDA-MB-231 cells by SRB assay
Rattus norvegicus [20] = test: Anti-inflammatory activity against carrageenan-induced acute paw edema in Wistar albino rat at 10 mg/kg assessed as inhibition of paw edema incubated for 5 hrs by Plethysmometric analysis relative to control; format: functional; parameters: scale not given: the % may be the effect or the level left
Rattus norvegicus [21] = test: Anti-inflammatory activity against carrageenan-induced acute paw edema in Wistar albino rat at 10 mg/kg assessed as inhibition of paw edema incubated for 3 hrs by Plethysmometric analysis relative to control; format: functional; parameters: scale not given: the % may be the effect or the level left
[22] = test system: Human immunodeficiency virus; test: Antiviral activity against HIV-CBL 20 infected in MT-4 cells assessed as viral replication measured after 4 days by ELISA; format: functional, organism-based; settings: Human immunodeficiency virus 1, CBL 20, MT4, 96 h
Cannabinoid receptor 2 = Cannabinoid receptor 2 (Homo sapiens, UniProt P34972); test: Binding affinity to human recombinant CB2 receptor
Sequence of Cannabinoid receptor 2 (P34972 whole entry): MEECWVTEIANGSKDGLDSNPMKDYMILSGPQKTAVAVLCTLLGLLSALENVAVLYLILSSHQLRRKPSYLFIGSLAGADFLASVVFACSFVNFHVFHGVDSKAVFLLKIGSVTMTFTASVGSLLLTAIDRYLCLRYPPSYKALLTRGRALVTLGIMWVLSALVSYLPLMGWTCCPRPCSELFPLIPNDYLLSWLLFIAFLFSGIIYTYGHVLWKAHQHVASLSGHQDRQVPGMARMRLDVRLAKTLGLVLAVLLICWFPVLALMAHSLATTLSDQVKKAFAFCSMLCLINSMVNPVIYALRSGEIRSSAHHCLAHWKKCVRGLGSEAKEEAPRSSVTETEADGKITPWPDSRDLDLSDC

Cannabinoid receptor 1 = Cannabinoid receptor 1 (Rattus norvegicus, UniProt P20272); test: Binding affinity to rat CB1 receptor
Sequence of Cannabinoid receptor 1 (P20272 whole entry): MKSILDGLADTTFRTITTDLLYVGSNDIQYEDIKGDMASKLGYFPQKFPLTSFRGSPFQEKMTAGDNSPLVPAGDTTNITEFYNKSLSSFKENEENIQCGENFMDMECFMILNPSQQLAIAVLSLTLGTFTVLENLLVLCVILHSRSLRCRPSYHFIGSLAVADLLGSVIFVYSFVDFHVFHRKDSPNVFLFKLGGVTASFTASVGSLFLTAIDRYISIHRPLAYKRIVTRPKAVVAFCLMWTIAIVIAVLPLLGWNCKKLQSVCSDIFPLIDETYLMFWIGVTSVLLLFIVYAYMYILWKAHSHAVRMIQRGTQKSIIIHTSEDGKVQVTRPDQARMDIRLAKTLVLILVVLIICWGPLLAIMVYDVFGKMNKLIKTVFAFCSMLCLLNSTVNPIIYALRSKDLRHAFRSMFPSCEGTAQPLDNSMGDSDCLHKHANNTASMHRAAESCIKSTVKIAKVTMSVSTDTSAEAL

Rattus norvegicus [23] = test: Antihypertensive activity in Wistar rat assessed as decrease in systolic blood pressure at 20 mg/kg, po measured after 0.5 to 2 hrs by tail cuff method; format: functional; settings: time 0.5-2 hrs
[24] = Cytotoxicity activity against human MOLT-4 cells assessed as reduction in cell viability measured after 72 hrs by MTT assay; format: toxicity, cell-based
[25] = Cytotoxicity activity against human MCF7 cells assessed as reduction in cell viability measured after 72 hrs by MTT assay; format: toxicity, cell-based
[26] = Cytotoxicity activity against human HL-60 cells assessed as reduction in cell viability measured after 72 hrs by MTT assay; format: toxicity, cell-based
Escherichia coli [27] = test: Antibacterial activity against Escherichia coli K12 assessed as zone of inhibition at 800 ug/mL by disk diffusion method; format: functional; settings: read-out: IZ
[28] = Cytotoxicity activity against human A549 cells assessed as reduction in cell viability measured after 48 hrs by MTT assay; format: toxicity, cell-based
[29] = molecular target: Tyrosine-protein kinase Lck (Homo sapiens, UniProt P06239); test: Inhibition of human recombinant Lck
Sequence of Tyrosine-protein kinase Lck (P06239 whole entry): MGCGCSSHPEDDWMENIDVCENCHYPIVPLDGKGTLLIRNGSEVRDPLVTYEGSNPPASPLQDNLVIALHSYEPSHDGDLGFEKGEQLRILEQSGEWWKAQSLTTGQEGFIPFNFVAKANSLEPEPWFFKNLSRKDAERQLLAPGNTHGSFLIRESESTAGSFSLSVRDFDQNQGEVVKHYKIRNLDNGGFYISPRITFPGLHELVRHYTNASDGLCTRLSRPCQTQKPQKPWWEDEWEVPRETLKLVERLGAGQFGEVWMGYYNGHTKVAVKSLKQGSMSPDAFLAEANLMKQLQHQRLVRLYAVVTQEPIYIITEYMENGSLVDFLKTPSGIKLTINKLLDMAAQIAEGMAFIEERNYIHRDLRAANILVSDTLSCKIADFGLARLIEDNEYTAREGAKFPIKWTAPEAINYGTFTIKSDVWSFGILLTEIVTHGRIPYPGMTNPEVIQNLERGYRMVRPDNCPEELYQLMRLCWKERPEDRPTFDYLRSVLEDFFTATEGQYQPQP

## O=C(O)c1cn(C2CC2)c2cc(N3CCNCC3)c(F)cc2c1=O [CIPROFLOXACIN]
Bacillus subtilis [1]
  zone of inhibition at 800 µg/mL: 18 mm
Staphylococcus aureus
  zone of inhibition at 800 µg/mL: 20 mm
Klebsiella pneumoniae [2]
  zone of inhibition at 800 µg/mL: 23 mm

## Cc1c(CN2CCSCC2)cc(-c2ccccc2F)n1-c1ccccc1F
[3]
  MIC: 1 µg/mL (≈ 2.6 µM)

## Cc1ccc(C)n1-c1ccc(C(=O)n2[nH]c(=O)c3ccccc3c2=O)cc1
[4]
  MIC: 0.4 µg/mL

## CCOc1c([N+](=O)[O-])c2n(c1C)CCN2Cc1cnc(Cl)s1
[5]
  mortality: 50%

## CN1C(=O)C(c2ccc[nH]2)=C(c2c[nH]c3ccc(Br)cc23)C1=O
[6]
  IC50 at 48 h: 2.16 µM
[7]
  IC50 at 48 h: 6.21 µM
[8]
  IC50 at 48 h: 29.7 µM

## O=C(O)Cn1c(C(=O)O)c(C(=O)c2cccs2)c2sc(C(=O)O)cc21
Rattus norvegicus [9]
  Activity: 36%

## CN1C(C(=O)Nc2ccccn2)=C(O)c2ccccc2S1(=O)=O [PIROXICAM]
Rattus norvegicus [10]
  Activity: 59%

## CCOc1cc(C2OC(c3ccc(-n4cccc4)cc3)=NN2C(C)=O)ccc1O (configuration not stated)
[4]
  MIC: 0.2 µg/mL

## CC[C@@H](CO)NCCN[C@@H](CC)CO [ETHAMBUTOL]
[4]
  MIC: 0.5 µg/mL

## CC(/C=C/C(=O)NO)=C\[C@@H](C)C(=O)c1ccc(N(C)C)cc1 [TRICHOSTATIN]
[11]
  IC50: 0.8 nM
[12]
  IC50: 7 nM
[13]
  IC50: 0.4 nM

## O=C(N/N=C/c1ccc(C(c2cccc([N+](=O)[O-])c2)c2ccc(/C=N/NC(=O)c3ccncc3)[nH]2)[nH]1)c1ccncc1
[14]
  MIC: 7.9 µg/mL (≈ 14.1 µM)

## O=[N+]([O-])NC1=NCCN1Cc1ccc(Cl)nc1 [IMIDACLOPRID]
[5]
  mortality: 40%

## CCCCc1c(COC(N)=O)cn(Cc2ccncc2)c1Sc1cc(Cl)cc(Cl)c1
[15]
  EC50: 7 nM

## CN(C)[C@@H]1C(O)=C(C(N)=O)C(=O)[C@@]2(O)C(O)=C3C(=O)c4c(O)cccc4[C@@](C)(O)[C@H]3C[C@@H]12 [TETRACYCLINE]
Bacillus subtilis [16]
  IC50: 1.25 µM
[17]
  IC50: 10 µM
Pseudomonas aeruginosa
  IC50: 1.25 µM
Escherichia coli [18]
  IC50: 10 µM
Klebsiella pneumoniae [19]
  IC50: 0.312 µM

## COc1cc2c(c(OC)c1OC)-c1ccc(OC)c(=O)cc1[C@@H](NC(C)=O)CC2 [COLCHICINE]
MDA-MB-231
  IC50: 2000 nM

## Cc1c[nH]c(C(=O)N/N=C(/N=N/c2ccccc2)c2ccccc2O)c1C
Bacillus subtilis [16]
  IC50: 460 µM
[17]
  IC50: 460 µM
Pseudomonas aeruginosa
  IC50: 15.6 µM
Escherichia coli [18]
  IC50: 15.6 µM
Klebsiella pneumoniae [19]
  IC50: 15.6 µM

## O=C(Nc1nnc(-c2ccccc2)s1)c1c[nH]cc1-c1ccc([N+](=O)[O-])cc1
Rattus norvegicus [20]
  Activity: 78.62%
Rattus norvegicus [21]
  Activity: 76.24%

## CO[C@H]1/C=C/O[C@@]2(C)Oc3c(C)c(O)c4c(O)c(c(/C=N/N5CCN(C)CC5)c(O)c4c3C2=O)NC(=O)/C(C)=C\C=C\[C@H](C)[C@H](O)[C@@H](C)[C@@H](O)[C@@H](C)[C@H](OC(C)=O)[C@@H]1C [RIFAMPIN]
[4]
  MIC: 0.4 µg/mL
[3]
  MIC: 0.3 µg/mL (≈ 0.365 µM)

## CN[C@@H]1[C@H](O[C@H]2[C@H](O[C@H]3[C@H](O)[C@@H](O)[C@H](N=C(N)N)[C@@H](O)[C@@H]3N=C(N)N)O[C@@H](C)[C@]2(O)C=O)O[C@@H](CO)[C@H](O)[C@H]1O [STREPTOMYCIN]
[3]
  MIC: 0.5 µg/mL (≈ 0.86 µM)

## CCOC(=O)c1cccn1S(=O)(=O)c1ccccc1[N+](=O)[O-]
[22]
  EC50: 15.1 µM

## CCCCCn1c(C)c(Br)c(C(=O)c2cccc3ccccc23)c1C
Cannabinoid receptor 2
  EC50: 6.8 nM
Cannabinoid receptor 1
  EC50: 13.3 nM

## COc1ccc2c(c1)c(CC(=O)O)c(C)n2C(=O)c1ccc(Cl)cc1 [INDOMETHACIN]
Rattus norvegicus [20]
  Activity: 80.32%
Rattus norvegicus [21]
  Activity: 74.82%

## NNc1nncc2ccccc12 [HYDRALAZINE]
Rattus norvegicus [23]
  Activity: 83.59 mmHg

## COC(=O)c1c(C2C(=O)N(C)C(=O)N(C)C2=O)c(-c2ccccc2)n(-c2ccc(OC)c(S(=O)(=O)N3CCOCC3)c2)c1C(=O)OC
[24]
  IC50 at 72 h: 25.5 µM
[25]
  IC50 at 72 h: 39 µM
[26]
  IC50 at 72 h: 30.6 µM

## CC(C(=O)c1cc(/C=C/C(=O)NO)n(C)c1)c1ccccc1 (configuration not stated)
[11]
  IC50: 28 nM
[12]
  IC50: 112 nM
[13]
  IC50: 15 nM

## CCCCCCC(O)C/C=C/CCCCCCCCC(=O)Nn1c(C)ccc1C (configuration not stated)
Bacillus subtilis [1]
  zone of inhibition at 800 µg/mL: 19 mm
Staphylococcus aureus
  zone of inhibition at 800 µg/mL: 18 mm
Klebsiella pneumoniae [2]
  zone of inhibition at 800 µg/mL: 20 mm
Escherichia coli [27]
  zone of inhibition at 800 µg/mL: 21 mm

## O=[N+]([O-])c1ccccc1S(=O)(=O)c1ccccc1
[22]
  EC50: 3.4 µM

## NC(=O)N1C(=O)/C(=C(\[O-])c2cccs2)c2cc(Cl)ccc21.[Na+] [TENIDAP SODIUM]
Rattus norvegicus [10]
  Activity: 60%

## O=C([O-])Cc1ccccc1Nc1c(Cl)cccc1Cl.[Na+] [DICLOFENAC SODIUM]
Rattus norvegicus [10]
  Activity: 68%

## O=C1NC(=O)C(c2c[nH]c3ccccc23)=C1c1c[nH]c2ccccc12 [RO-316233]
[28]
  IC50 at 48 h: 4.14 µM
[6]
  IC50 at 48 h: 10.3 µM
[7]
  IC50 at 48 h: 15.9 µM
[8]
  IC50 at 48 h: 13.2 µM

## NNC(=O)c1ccncc1 [ISONIAZID]
[4]
  MIC: 0.2 µg/mL
[14]
  MIC: 7.9 µg/mL (≈ 57.6 µM)
[3]
  MIC: 0.25 µg/mL (≈ 1.82 µM)

## CCCC/C=C/CCC(O)CCCCCCCC(=O)Nn1c(C)ccc1C (configuration not stated)
Bacillus subtilis [1]
  zone of inhibition at 800 µg/mL: 18 mm
Staphylococcus aureus
  zone of inhibition at 800 µg/mL: 20 mm
Klebsiella pneumoniae [2]
  zone of inhibition at 800 µg/mL: 21 mm
Escherichia coli [27]
  zone of inhibition at 800 µg/mL: 22 mm

## NC(=O)c1c(-c2ccc(Oc3ccccc3)cc2)[nH]c(C(=O)c2c(F)cccc2F)c1N
[29]
  IC50: 1.1 nM

## CCOC(=O)c1cc(-c2ccc([N+](=O)[O-])cc2)n(-c2ccc(C3=NNC(=O)CC3)cc2)c1C
Rattus norvegicus [23]
  Activity: 70.3 mmHg
